Source: patent US20170106101A1, “METHODS INVOLVING MACROPHAGE TUMOR CELL FUSION HYBRIDS” (OREGON HEALTH & SCIENCE UNIVERSITY, priority 2015, published 2017)

B1: Csf1: ligand of colony stimulating factor 1 receptor, used as chemoattractant (protein, UniProt P07141 33-552, looked up)
Macrophage colony-stimulating …: KEVSEHCSHMIGNGHLKVLQQLIDSQMETSCQIAFEFVDQEQLDDPVCYLKKAFFLVQDIIDETMRFKDNTPNANATERLQELSNNLNSCFTKDYEEQNKACVRTFHETPLQLLEKIKNFFNETKNLLEKDWNIFTKNCNNSFAKCSSRDVVTKPDCNCLYPKATPSSDPASASPHQPPAPSMAPLAGLAWDDSQRTEGSSLLPSELPLRIEDPGSAKQRPPRSTCQTLESTEQPNHGDRLTEDSQPHPSAGGPVPGVEDILESSLGTNWVLEEASGEASEGFLTQEAKFSPSTPVGGSIQAETDRPRALSASPFPKSTEDQKPVDITDRPLTEVNPMRPIGQTQNNTPEKTDGTSTLREDHQEPGSPHIATPNPQRVSNSATPVAQLLLPKSHSWGIVLPLGELEGKRSTRDRRSPAELEGGSASEGAARPVARFNSIPLTDTGHVEQHEGSSDPQIPESVFHLLVPGIILVLLTVGGLLFYKWKWRSHRDPQTLDSSVGRPEDSSLTQDEDRQVELPV
B2: Hgf: Hepatic growth factor, cytokine tested for growth effect on MC38 and hybrid cells (protein, UniProt Q08048 33-495; Q08048 496-728, looked up)
Hepatocyte growth factor …: QKKRRNTLHEFKKSAKTTLTKEDPLLKIKTKKVNSADECANRCIRNRGFTFTCKAFVFDKSRKRCYWYPFNSMSSGVKKGFGHEFDLYENKDYIRNCIIGKGGSYKGTVSITKSGIKCQPWNSMIPHEHSFLPSSYRGKDLQENYCRNPRGEEGGPWCFTSNPEVRYEVCDIPQCSEVECMTCNGESYRGPMDHTESGKTCQRWDQQTPHRHKFLPERYPDKGFDDNYCRNPDGKPRPWCYTLDPDTPWEYCAIKTCAHSAVNETDVPMETTECIQGQGEGYRGTSNTIWNGIPCQRWDSQYPHKHDITPENFKCKDLRENYCRNPDGAESPWCFTTDPNIRVGYCSQIPKCDVSSGQDCYRGNGKNYMGNLSKTRSGLTCSMWDKNMEDLHRHIFWEPDASKLNKNYCRNPDDDAHGPWCYTGNPLIPWDYCPISRCEGDTTPTIVNLDHPVISCAKTKQLR
Hepatocyte growth factor beta …: VVNGIPTQTTVGWMVSLKYRNKHICGGSLIKESWVLTARQCFPARNKDLKDYEAWLGIHDVHERGEEKRKQILNISQLVYGPEGSDLVLLKLARPAILDNFVSTIDLPSYGCTIPEKTTCSIYGWGYTGLINADGLLRVAHLYIMGNEKCSQHHQGKVTLNESELCAGAEKIGSGPCEGDYGGPLICEQHKMRMVLGVIVPGRGCAIPNRPGIFVRVAYYAKWIHKVILTYKL

How the values were obtained:
Assay type in all cases: cell-based, mouse
[1] = tested on: unfused MC38 cancer cells; assay: Transwell chemotaxis assay towards ligand; conditions: ligand 25 ng/ml
Procedure: (§1) Chemotaxis assay. Chemotaxis assays were performed using IncuCyte™ Chemotaxis Cell Migration Assay (Essen) with at least three technical replicates of triplicate samples. Briefly, 1000 cancer cells were plated in the top wells in DMEM+0.2% FBS after incubation in serum-free media for 20 h. Csf1 or Sdf1 ligand (25 ng/mL) was added to the bottom well and cells were incubated at 37° C. for at least 36 hours with live-imaging. The neutralizing antibodies to the Csf1R (eBioscience), Cxcr4 (Biolegend) and isotype control antibody were added to the top and bottom well (2.5 ng/μL). Migration was quantified by measuring phase contrast area of the top and bottom wells for each timepoint using IncuCyte ZOOM® software. Triplicates of each condition were performed, and the means and standard deviations were calculated. p<0.02 for hybrids treated with Csf1 or Sdf1 relative to hybrids without Csf1 or Sdf1 by unpaired t-test. Two independent hybrid isolates were analyzed. Technical octupulicates (MC38) or sextuplicates (B16F10) with biologic quadruplicates or triplicates were analyzed. For inhibitor studies technical duplicates with biologic triplicates were analyzed.

[2] = tested on: MC38-derived fusion hybrids; assay: Transwell chemotaxis assay towards ligand; conditions: ligand 25 ng/ml
Procedure: as §1

MC38 cells = assay: Growth responsiveness to cytokines and soluble factors (MTS, confluence, viability); conditions: increasing concentrations of cytokine
Procedure: (§2) In vitro-derived hybrid proliferation. For phenotypic profiling growth responsiveness to cytokines and soluble factors, 95 different cytokines or soluble signaling molecules were distributed at high, medium and low concentrations in 384 well plates, in 25 μl of RPMI (Life Technologies, NY) supplemented with 1% FBS; and 25 μl of a 1.2×10^4 cells/ml suspension of hybrid or MC-38 cells in DMEM+4% FBS was added to each well. 99 wells of each plate were left cytokine-free and no cells were added to two of these wells, which served to provide measurements of background signal. Plates were cultured in a humidified incubator for 72 hours, after which 5 ul of MTS reagent was added to each well. Two hours later, absorbance at 490 nm was read with a 384-well plate reader. For each plate, absorbance values for each cytokine-treated well were normalized to the mean absorbance of the cytokine-free wells on that plate, and expressed in terms of standard deviations from the cytokine-free mean. Three independent hybrid isolates and three MC38 replicates were analyzed. […] In these experiments, 2.5×10^4 hybrid or MC38 cells were plated in the presence of three different concentrations for each soluble factor, or in media alone (DMEM+2.5% FBS), in triplicate for each condition. Plates were imaged every two hours for 90 hours, and then cell viability was assessed.

[3] = tested on: MC38-derived hybrid cells; assay: as above; conditions: increasing concentrations of cytokine; MC38-derived hybrids
Procedure: as §2

[4] = tested on: B16F10 cancer cell hybrids; assay: Transwell chemotaxis assay towards ligand; conditions: ligand 25 ng/ml
Procedure: as §1

Molecule	migration of unfused MC38 cells towards ligand [1]	migration of fusion hybrids towards ligand [2]	effect on MC38 proliferation / growth (MC38 cells)	effect on hybrid proliferation / growth [3]	migration of B16F10 hybrids towards ligand [4]
Sdf1: strongly chemotactic lymphocyte cytokine, ligand of Cxcr4	incapable of responding	migrated towards	–	–	–
Tnf-α	–	–	profound inhibitory effect	resistant	–
B1	incapable of responding	migrated towards	–	–	low response
B2	–	–	moderate, dose-dependent growth-suppressing effect	–	–
